{"source": "patent US20250304700A1", "about": "“ANTI-BLOOD DENDRITIC CELL ANTIGEN 2 ANTIBODIES AND USES THEREOF” (Biogen MA Inc., priority 2012, published 2025)", "key": {"[1]": {"test_system": "TLR9-induced IFNα production", "experiment": "Ex vivo whole blood assay (MxA bioassay) after in vivo dosing", "design": "species or system cynomolgus monkey", "procedure": "FIG. 58 is a schematic representation of the Cynomolgus Monkey PK/PD Experimental Design. Nine Cynomolgus monkeys completed the intravenous (IV) dose study. […] At each bleeding time point, a whole blood assay was performed where whole blood from the cynomolgus monkeys was diluted 1:4 with complete RPMI 1640 and stimulated with CPG-A to a final concentration of 200 μg/ml in a 96 well round bottom tissue culture plate and incubated at 37° C. 5% CO2 for 18-20 hours. At the end of the culture, the stimulated whole blood was centrifuged to harvest serum. In the MxA bioassay, A549 cells were stimulated with the harvested serum for 19-20 hours at 37° C. 5% CO2 to induce MxA protein. After 20 hours, A549 cells were lysed and a sandwich ELISA was performed to detect concentrations of MxA protein. IFNα levels (units/mL) were back calculated from a standard curve generated by treating A549 cells with increasing doses of rIFNa.\nIntravenous and subcutaneous dosing routes were evaluated for their ability to impact IFNα induction, which was measured using the MxA bioassay according to the experimental plan outlined in FIG. 58. TLR9 ligand (CpG-A) induced measurable quantities of IFNα in whole blood cultures across all time points and in all cynomolgus monkeys, while no IFNα was detected in the control PBS-treated cultures (data not shown).\nA more comprehensive analysis of the data was performed using two-way mixed effects analysis of variance (ANOVA) to estimate the mean IFNα and the post versus pre differences for each dose group in the IV-study. Data during the first 24 hours following dosing were excluded due to an observed decrease in peripheral blood plasmacytoid dendritic cell percentages. Data for bleeds after day 31 post-dose were excluded from the analysis due to the return of BDCA2 expression observed at this time. For the vehicle dosed group, the geometric mean IFNα was 362 Units/mL (U/mL) pre-dose, and 314 U/mL post-dose; for the 1 mg/kg dosed group, the geometric mean was 399 U/mL pre-dose, and 237 U/mL post-dose; for the 10 mg/kg group, the geometric mean IFNα was 211 U/mL pre-dose, and 102 U/mL post-dose (FIG. 4). The post-pre differences in mean log 10 IFNα were-0.061 (p=0.511) for the Vehicle group, −0.226 (p=0.016) for the 1 mg/kg group, and −0.317 (p=0.004) for the 10 mg/kg group.\nFor the subcutaneously-dosed cynomolgus monkey cohort, a one-way analysis of variance (ANOVA) with random effects was used to estimate the mean IFNα and the post versus pre differences for the entire group. Data during the first 24 hours following dosing were excluded due to an observed decrease in peripheral blood plasmacytoid dendritic cell percentages. Data for bleeds after day 33 post-dose were excluded from the analysis due to the recovery of BDCA2 expression observed at this time. For the subcutaneously dosed group, the geometric mean IFNα was 1243 U/mL pre-dose and 812 U/mL post-dose, yielding a post/pre ratio of 65%. The post-pre difference in mean log 10 was estimated to be −0.185 (p=0.059) which, after anti-log 10 transformation, corresponds to 10^(−0.185)=65% of the pre-dose geometric mean; the 95% CI of this effect is 41%-102% (FIG. 61)."}, "[2]": {"test_system": "human and cynomolgus BDCA2 ECD", "experiment": "Octet binding of BIIB059 to BDCA2 ECD", "design": "species or system cynomolgus monkey", "details": "BIIB059 on anti-human Fc tips, ECD 2 μg/mL, 5 mM CaCl2", "procedure": "For the association step, human and cynomolgus BDCA2 ECD was added at a concentration of 2 μg/mL. The buffer for this experiment was 50 mM HEPES, pH 7, 100 mM NaCl, 5 mM CaCl2, 1 mg/mL BSA, 0.02% Tween 20 and 0.001% azide."}, "circulating pDCs": {"test_system": "circulating pDCs", "experiment": "Circulating pDC frequency after dosing cynomolgus monkeys", "format": "in vivo, cynomolgus monkey", "from_the_text": "Nine of these twelve cynomolgus monkeys were divided into 3 groups (3/group), and randomized to include equal representation of BDCA2 density and percent pDC in each group. […] Flow cytometry was used to identify circulating pDCs in the whole blood as CD20-CD14-CD123+HLA-DR+, and the pDC frequency (on log-scale) at each time point was graphed in R software (FIG. 54). A linear mixed effects model was fitted to log (pDC) frequencies using random intercepts for cynomolgus monkeys and fixed effects for dose group and time period: 1 hour, 6 hours, 1-27 days, and greater than 28 days. To assess whether pDC changed among different dose groups at different time periods, a preliminary model also included the interaction terms for dose group and different time periods.\nThe pDC frequency (on log-scale) at each time point was graphed in R software (FIG. 56). A linear mixed effects model was fitted, using continuous time and time at 1 hour as fixed factors, and cynomolgus monkeys as random intercepts."}}, "data": [{"substance": "BIIB059: humanized IgG1 anti-BDCA2 antibody, mature heavy chain SEQ ID NO: 4 and mature light chain SEQ ID NO: 3", "values": [{"measurement": "IFNα post-dose, of the pre-dose geometric mean", "setting": "[1]; 0.2 mg/kg SC", "result": 65, "unit": "%"}, {"measurement": "post-pre difference in mean log 10 IFNα", "setting": "[1]; 0.2 mg/kg SC", "result": "−0.185"}, {"measurement": "geometric mean IFNα post-dose", "setting": "[1]; 0.2 mg/kg SC, up to day 33", "result": 812, "unit": "U/mL"}, {"measurement": "IFN concentration post-dose compared to pre-dose", "setting": "[1]; 1 mg/kg IV", "result": 59, "unit": "%"}, {"measurement": "post-pre difference in mean log 10 IFNα", "setting": "[1]; 1 mg/kg IV", "result": "−0.226"}, {"measurement": "geometric mean IFNα post-dose", "setting": "[1]; 1 mg/kg IV, up to day 31", "result": 237, "unit": "U/mL"}, {"measurement": "IFN concentration post-dose compared to pre-dose", "setting": "[1]; 10 mg/kg IV", "result": 48, "unit": "%"}, {"measurement": "geometric mean IFNα post-dose", "setting": "[1]; 10 mg/kg IV", "result": 102, "unit": "U/mL"}, {"measurement": "post-pre difference in mean log 10 IFNα", "setting": "[1]; 10 mg/kg IV", "result": "−0.317"}, {"measurement": "TLR9-induced IFN production ex vivo, in words", "setting": "[1]; dosed in vivo, IV and SC", "result": "trend towards inhibited TLR9-induced IFN production"}, {"measurement": "binding to human versus cyno BDCA2 ECD", "setting": "[2]", "result": "comparable"}, {"measurement": "effect est., log % circulating pDC", "setting": "circulating pDCs; Group: BIIB059 1 mg/kg IV v. vehicle", "result": 0.49}, {"measurement": "effect est., log % circulating pDC", "setting": "circulating pDCs; SC 0.2 mg/kg, time (continuous)", "result": 0.01}, {"measurement": "effect est., log % circulating pDC", "setting": "circulating pDCs; SC 0.2 mg/kg, time: 1 hr v. others", "result": "−0.78"}, {"measurement": "depletion of pDCs in the blood, in words", "setting": "circulating pDCs; tested doses", "result": "does not mediate a sustained depletion of pDCs"}]}]}
